Entries after “also recorded” stand apart in the source; their conditions may differ.
Legend:
[1] = system: HuH7; assay: MTT growth inhibition, HuH7; type: cell-based, human; conditions: Homo sapiens, Huh-7, 78 h
Protocol: Samples of the test compounds were formulated in 100% DMSO to obtain 20 mM stock solutions; stored @ 4° C. The IC50s and IC80s were determined as described below. Huh7, WRL-68, PLC/PRF/5, Hep 3B, and Hep G2 human cancer lines were routinely cultured and maintained in a basal medium containing 2% FBS @ 37° C., 5% CO2. […] The assay medium was basal medium/1.5% FBS. Cells were cultured overnight in 96-well plates at 37° C., 5% CO2 prior to KX2-391. MSA and Dasatinib addition. […] 10 μL of 20× dilutions were added to the appropriate wells (n=3) containing 190 μL cancer cell line; 6561 nM to 0.012 nM range of final concentrations. Vehicle control contained cells, no sample. Medium control contained cells, no sample, 0.03% DMSO (highest DMSO concentration present in samples). […] On day 3, 10 μL MTT (5 mg/mL) were added to each well. Cells were incubated in the presence of MTT for 4 hours @ 37° C., 5% CO2. […] Cells were then incubated overnight @ 37°, 5% CO2. OD570 measurements were taken using BioTek Synergy HT multiplatform microplate reader. Growth inhibition curves IC50s and IC80s were determined using GraphPad Prism 5 statistical software.

[2] = system: CCRF-HSB-2 (Adult lymphoblastic leukemia); assay: growth inhibition, CCRF-HSB-2; type: cell-based, Human
[3] = system: MOLT-4 (Adult lymphoblastic leukemia); assay: growth inhibition, MOLT-4; type: cell-based, Human; conditions: Homo sapiens
[4] = system: H226; assay: MTT growth inhibition, Dasatinib-resistant H226; type: cell-based, human; conditions: Homo sapiens, NCI-H226, H226, 8.0×10^3 cells/well, 1.5% FBS, 78 Hr
Protocol: Cell proliferation/growth inhibition was assessed using MTT colorimetric assay.
On Day 3, 10 μL MTT (5 mg/mL) was added to each well. Cells were then incubated in the presence of MTT for 4 hours at 37° C., appropriate CO2 conditions. After this incubation period, 90 μL 10% SDS(+HCl) was added to each well to lyse cells and solubilize formazan. Cells were then incubated overnight at 37° C., appropriate CO2 conditions.
The OD570 was measured using microplate reader. Growth inhibition curves and EC50/IC50 was determined using GraphPad Prism 4 statistical software.

[5] = system: K562 (CML); assay: growth inhibition (BrdU), K562; type: cell-based, Human; conditions: Homo sapiens; K562, BrdU, T=72
From the text: Growth Inhibition. […] T1 values≤T0 values were designated as T, cytotoxicity.

[6] = system: PC3-MM2 prostate cancer cells; assay: orthotopic prostate model for in vivo metastases; design: species or system Nu/Nu mice; conditions: 15 mg/kg/day oral gavage
Protocol: Nu/Nu mice (8-12 weeks of age) were injected with PC3-MM2 prostate cancer cells into the prostate as described previously in Pettaway et al., Clin Cancer Res 1996, 2:1627-1636, hereby incorporated herein by reference in its entirety. […] All mice were sacrificed by cervical dislocation on about day 42. Tumor volume (measured by caliper), weight, and incidence of regional (celiac or para-aortal) lymph node metastases were recorded.

[7] = system: Ba/F3 (IL-3 induced); assay: MTT growth inhibition, Ba/F3 + IL-3; type: cell-based; conditions: 96 hrs
[8] = system: HT29 (human colon cancer); conditions: mouse, in vivo
[9] = system: Hep 3B; assay: MTT growth inhibition, Hep 3B; type: cell-based, human; conditions: Homo sapiens, Hep3B, 78 h
Protocol: (§1) Samples of the test compounds were formulated in 100% DMSO to obtain 20 mM stock solutions; stored @ 4° C. The IC50s and IC80s were determined as described below. Huh7, WRL-68, PLC/PRF/5, Hep 3B, and Hep G2 human cancer lines were routinely cultured and maintained in a basal medium containing 2% FBS @ 37° C., 5% CO2. […] Vehicle control contained cells, no sample. Medium control contained cells, no sample, 0.03% DMSO (highest DMSO concentration present in samples). […] On day 3, 10 μL MTT (5 mg/mL) were added to each well. Cells were incubated in the presence of MTT for 4 hours @ 37° C., 5% CO2. […] Cells were then incubated overnight @ 37°, 5% CO2. OD570 measurements were taken using BioTek Synergy HT multiplatform microplate reader. Growth inhibition curves IC50s and IC80s were determined using GraphPad Prism 5 statistical software.

[10] = system: WRL-68; assay: MTT growth inhibition, WRL-68; type: cell-based, human; conditions: Homo sapiens, WRL68, 78 h
Protocol: as §1

[11] = system: PLC/PRF/5; assay: MTT growth inhibition, PLC/PRF/5; type: cell-based, human; conditions: Homo sapiens, PLC-PRF-5, 78 h
Protocol: as §1

[12] = system: L3.6pl cells; assay: growth inhibition (BrdU), L3.6pl; type: cell-based, human; conditions: Homo sapiens, L3.6pl, L3.6pl (Pancreas) cells, single agent
From the text: L3.6pl cells are previously described in Trevino et al. Am J Pathol.

[13] = system: HT29 cell line; assay: BrdU cell growth inhibition, HT29; type: cell-based, human; conditions: Homo sapiens
Summary of the method: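 HT29 colon carcinoma cells treated with compounds diluted from 20 mM DMSO stocks into DMEM/10% FBS. Proliferation read as colorimetric BrdU incorporation ELISA; GI calculated relative to untreated cells at time 0 and control cells at day n, with GI50 extrapolated. Net cell loss below time-0 level scored as cytotoxicity.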

[14] = noise-induced hearing loss; type: in vivo, Chinchillas; conditions: chinchilla ears treated on round window, 4 kHz band noise 105 dB SPL 4 h, days 1, 7, 21; relative to control ears
Protocol: Chinchillas (N=6) were used in studies of noise-induced hearing loss. The animals' hearing sensitivity was measured using standard electrophysical techniques before the experimental manipulation. […] Animals were anesthetized, the auditory bullae were opened, and the left and right cochleas were visualized. The round window leading to the scala tympani of the cochlea was used as the access point for drug application. Animals were treated with KX1-004, KX1-141, KX1-329 or KX2-328 (a non-ATP competitive inhibitor from AstraZeneca, KX2-238), emulsified in DMSO, in 1000 mM of saline solution, which was placed on the round window of one ear. KX1-004:
A control solution of 3 mM DMSO in 1000 mM of saline solution was placed on the round window of the other ear. The solution was allowed to set on the round window for 30 minutes, then the auditory bullae were closed. […] Following the noise exposure, the animals' hearing was tested at day 1, day 7, and day 21 to determine evoked potential threshold shifts. Permanent threshold shift was assessed at day 21.
FIGS. 10-12 show the average threshold shifts for animals treated with KX1-004, KX1-141, KX1-329 or KX2-328.

[15] = system: osteoclast precursors derived from spleen cells; assay: osteoclast formation from spleen cells; type: cell-based; conditions: 5 days, RANKL and M-CSF, vs untreated control
Protocol: To determine the effect of the compounds on osteoclast formation, the compounds were added to osteoclast precursors derived from spleen cells. For the generation of spleen-derived osteoclasts, spleen cells comprising osteoclast precursors were treated with Rapamycin, KX1-141, KX2-328 (AstraZeneca compound), or KX1-329 for 5 days in the presence of receptor activator of nuclear factor-xB ligand (RANKL) and macrophage colony-stimulating factor (M-CSF). In in vitro murine or human osteoclast models, soluble RANKL enables osteoclast precursors to differentiate in the presence of M-CSF (Quinn, et al.; 1998, Endocrinology, 139, 4424-4427; Jimi, et al.; 1999, J. Immunol., 163, 434-442). The untreated control cells were incubated in the presence of RANKL and M-CSF alone. Rapamycin was used as a positive control for the inhibition of osteoclast formation.
For generating spleen-derived osteoclasts, spleen cells were treated as described above. […] Cells were then stained with the osteoclast marker, tartrate-resistant acid phosphatase (TRAP) to visualize differentiated cells. The numbers of TRAP-positive osteoclasts were counted.

[16] = system: resorption pits on bone slices; assay: resorption pit formation on bone slices; type: cell-based; conditions: vs untreated control
Protocol: During the resorption of bone, osteoclasts form resorption pits. To determine the effects of the compounds on resorption pit formation on bone slices, the bone slices were treated with Rapamycin, KX1-141, KX2-328, or KX1-329, as described above. […] The number of resorption pits on the bone slices was determined.
Bone slices were treated as indicated above. […] The bone slices were stained with Toluidine Blue to reveal resorption pits, which are indicators of osteoclast-mediated resorption of bone.

[17] = system: osteoclasts on bone slices; assay: osteoclast formation on bone slices; type: cell-based; conditions: vs untreated control
Protocol: To determine the effects of the compounds on osteoclast formation on bone slices, the bone slices were treated with Rapamycin, KX1-141, KX2-328, or KX1-329. […] The number of osteoclasts on the bone slices were counted.
Bone slices were treated as indicated above. […] The bone slices were then stained with TRAP.

[18] = system: osteoblasts; assay: osteoblast protein expression; type: cell-based
Protocol: The enzyme alkaline phosphatase has been used as an indicator of osteoblast activity, as it is involved in making phosphate available for calcification of bone.
To determine the effects of the compounds on osteoblast activity and protein expression, osteoblasts were treated with medium, DMSO, BMP2, KX1-141, KX2-328, or KX1-329 as indicated above. The protein concentration in cell lysates was determined (μg/10 μl) (FIG. 23).

[19] = system: osteoclasts; assay: osteoclast survival; type: cell-based; conditions: 48 hours, RANKL and M-CSF, vs untreated control
Protocol: To determine the effect of the compounds on osteoclast survival, osteoclasts were treated with Rapamycin, KX1-141, KX2-328, or KX1-329 for 48 hours in the presence of RANKL and M-CSF. The untreated, control cells were incubated in the presence of RANKL and M-CSF alone. Rapamycin was used as a positive control for the inhibition of osteoclast survival.
As described above, osteoclasts were treated with Rapamycin, KX1-141, KX2-328, or KX1-329 for 48 hours in the presence of RANKL and M-CSF. […] Cells were then stained with TRAP and the number of TRAP-positive osteoclasts were counted.

[20] = system: c-Src 3T3 cells; assay: BrdU cell growth inhibition, c-Src 3T3; type: cell-based, mouse; conditions: Mus musculus; for GI50: c-Src 3T3 (c-Src527F/NIH3T3) cells, read-out: GI50
Summary of the method: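 c-Src 3T3 cells on poly-D-lysine plates in DMEM with 2% FBS, L-glutamine, pyruvate and 10 mM HEPES. Compounds came from 20 mM DMSO stocks diluted in DMEM/10% FBS. Proliferation was read by colorimetric BrdU-incorporation ELISA, and GI50 was extrapolated from growth relative to time-zero and untreated controls.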

[21] = target: isolated Src (Homo sapiens, UniProt P12931); assay: titration against isolated Src; type: biochemical; conditions: titration data
Sequence of isolated Src (P12931 whole entry): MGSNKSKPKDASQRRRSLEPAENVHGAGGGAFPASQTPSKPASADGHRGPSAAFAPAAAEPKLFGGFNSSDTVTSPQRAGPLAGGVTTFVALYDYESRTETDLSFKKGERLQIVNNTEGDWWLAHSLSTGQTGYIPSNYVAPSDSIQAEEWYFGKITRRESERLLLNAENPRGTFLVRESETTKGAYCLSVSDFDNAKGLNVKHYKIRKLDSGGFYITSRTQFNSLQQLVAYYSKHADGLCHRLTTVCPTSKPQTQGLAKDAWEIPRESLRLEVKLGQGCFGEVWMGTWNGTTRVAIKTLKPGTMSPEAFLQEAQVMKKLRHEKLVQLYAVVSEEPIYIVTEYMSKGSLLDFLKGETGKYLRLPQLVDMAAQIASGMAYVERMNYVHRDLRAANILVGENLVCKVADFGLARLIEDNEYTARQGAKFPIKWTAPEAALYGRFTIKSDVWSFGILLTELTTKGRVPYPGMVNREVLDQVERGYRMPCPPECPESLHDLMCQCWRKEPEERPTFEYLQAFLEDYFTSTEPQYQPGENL

[22] = target: isolated FAK (Homo sapiens, UniProt Q05397); assay: titration against isolated FAK; type: biochemical; conditions: titration data
Sequence of isolated FAK (Q05397 whole entry): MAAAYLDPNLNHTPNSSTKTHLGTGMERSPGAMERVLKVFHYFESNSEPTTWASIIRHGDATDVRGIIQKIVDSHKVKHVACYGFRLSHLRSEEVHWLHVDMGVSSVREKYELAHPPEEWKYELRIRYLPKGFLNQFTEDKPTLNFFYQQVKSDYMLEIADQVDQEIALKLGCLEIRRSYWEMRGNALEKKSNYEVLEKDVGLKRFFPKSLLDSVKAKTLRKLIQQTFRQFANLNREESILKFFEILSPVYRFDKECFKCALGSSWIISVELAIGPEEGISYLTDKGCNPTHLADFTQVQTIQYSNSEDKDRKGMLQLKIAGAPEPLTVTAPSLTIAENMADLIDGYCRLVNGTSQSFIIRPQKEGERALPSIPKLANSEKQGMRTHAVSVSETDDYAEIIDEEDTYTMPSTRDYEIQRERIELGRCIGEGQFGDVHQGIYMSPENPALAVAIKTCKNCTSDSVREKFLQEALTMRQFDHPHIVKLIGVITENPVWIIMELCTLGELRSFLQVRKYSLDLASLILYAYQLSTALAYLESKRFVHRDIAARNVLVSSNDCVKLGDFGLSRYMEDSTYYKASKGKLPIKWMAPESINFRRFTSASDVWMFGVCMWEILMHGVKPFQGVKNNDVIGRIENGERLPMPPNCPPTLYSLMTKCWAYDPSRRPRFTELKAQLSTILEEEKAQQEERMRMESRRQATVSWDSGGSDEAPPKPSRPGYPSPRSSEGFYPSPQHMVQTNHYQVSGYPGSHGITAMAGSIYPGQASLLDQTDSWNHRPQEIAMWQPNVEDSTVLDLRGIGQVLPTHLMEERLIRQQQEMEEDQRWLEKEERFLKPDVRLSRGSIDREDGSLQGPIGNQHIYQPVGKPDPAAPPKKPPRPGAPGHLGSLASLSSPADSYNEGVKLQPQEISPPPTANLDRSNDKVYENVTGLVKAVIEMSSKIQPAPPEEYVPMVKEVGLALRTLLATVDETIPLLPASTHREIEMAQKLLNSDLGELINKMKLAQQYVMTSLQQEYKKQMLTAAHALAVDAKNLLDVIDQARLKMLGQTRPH

Cc1nc(Nc2ncc(C(=O)Nc3c(C)cccc3Cl)s2)cc(N2CCN(CCO)CC2)n1 [Dasatinib, reference compound]
IC50 [1]: 1970 nM
IC80 [1]: 7140 nM
GI50 [2]: Inactive (n = 1)
GI50 [3]: 644 nM
IC50 [4]: 163 nM
IC80 [4]: 7760 nM
GI50 [5]: < 1 nM
LN metastasis [6]: 2/5
Tumor incidence [6]: 5/6
Tumor weight (g) Median [6]: 0.43 g
GI50 [7]: does not inhibit; also recorded: Inactive
tolerability (reason for dose lowering at day 5) [8]: weight loss
IC80 [9]: > 50000 nM
IC80 [10]: 45600 nM
IC80 [11]: > 50000 nM

Nc1ccn([C@@H]2O[C@H](CO)[C@@H](O)C2(F)F)c(=O)n1 [Gemcitabine, gemcitabine, reference compound]
GI50 [12]: 2 nM

O=C(Cc1ccc(-c2ccccc2)cn1)NCc1cccc(F)c1 [KX1-329]
GI50 ([13]; HT-29, HT29 (Colon) cells, read-out: GI50): 338 nM
activity at 0.05 µM ([13]; HT-29, 50 nM, read-out: HT-29 Growth, % of Control Mean, n = 3): 101%
activity at 0.5 µM ([13]; HT-29, 500 nM, read-out: HT-29 Growth, % of Control Mean, n = 3): < 0%
activity at 5 µM ([13]; HT-29, 5 uM, read-out: HT-29 Growth, % of Control Mean, n = 3): < 0%
average dB threshold shifts [14]: lower
formation of osteoclasts (staining) [15]: inhibited
number of TRAP-positive osteoclasts (formation) [15]: reduced
number of resorption pits on the bone slices ([16]; FIG. 20B): reduced
number of resorption pits on the bone slices (Toluidine Blue) ([16]; FIG. 21B): reduced
number of osteoclasts on the bone slices ([17]; FIG. 20A): reduced
number of TRAP-positive osteoclasts on the bone slices ([17]; FIG. 21A): reduced
protein concentration in osteoblast cell lysates ([18]; 0.06 μM and 0.3 μM): increased protein concentration
protein concentration in osteoblast cell lysates ([18]; […] and 7.5 μM): reduced protein concentration
number of TRAP-positive osteoclasts (survival) [19]: reduced
survival of osteoclasts (staining) [19]: inhibited
activity at 0.1 µM ([20]; NIH3T3, 100 nM, read-out: c-Src 3T3 Growth, % of Control Mean, n = 3): 96%
activity at 1 µM ([20]; NIH3T3, 1.0 uM, read-out: c-Src 3T3 Growth, % of Control Mean, n = 3): < 0%
activity at 10 µM ([20]; NIH3T3, 10 uM, read-out: c-Src 3T3 Growth, % of Control Mean, n = 3): < 0%
GI50 [20]: 269 nM

CN1CCN(CCOc2ccc(-c3ccc(CC(=O)NCc4cccc(F)c4)nc3)c(F)c2)CC1 [KX2-394]
IC50 [21]: 5000 nM
IC50 [22]: > 48000 nM
GI50 [20]: 13 nM
